Experiment: Efflux ratio of permeability from […] side in MDCK1 cells expressing MDR1 at 10 uM after 2 hrs by LC-MS/MS analysis
Assay type: ADME, cell-based, Canis lupus familiaris
Settings: dog, mdck1, 2 h

C[C@H]1O[C@@H](O[C@H]2[C@@H](O)C[C@H](O[C@H]3[C@@H](O)C[C@H](O[C@H]4CC[C@@]5(C)[C@H](CC[C@@H]6[C@@H]5C[C@@H](O)[C@]5(C)[C@@H](C7=CC(=O)OC7)CC[C@]65O)C4)O[C@@H]3C)O[C@@H]2C)C[C@H](O)[C@@H]1O [DIGOXIN]
Ratio: 72

— ChEMBL document CHEMBL3526097, “Preclinical disposition of GDC-0973 and prospective and retrospective analysis of human dose and efficacy predictions” (Drug Metab Dispos, 2012)
